Laboratory results taken from ChEMBL document CHEMBL5113403, “Design, synthesis, and biological evaluation of novel pyrazolo [3,4-d]pyrimidine derivatives as potent PLK4 inhibitors for the treatment of TRIM37-amplified breast cancer” (Eur J Med Chem, 2022).

Columns and labels:
[1] = test system: MCF7; assay: Antiproliferative activity against human MCF7 cells assessed as cell growth inhibition incubated for 5 days by MTT assay; type: functional, cell-based; conditions: MCF7, 120 h
[2] = test system: MDA-MB-231; assay: Antiproliferative activity against human MDA-MB-231 cells assessed as cell growth inhibition incubated for 5 days by MTT assay; type: functional, cell-based; conditions: MDA-MB-231, 120 h
[3] = Plasma stability in human assessed as compound remaining at 100 uM measured after 30 mins by LC-MS/MS analysis relative to control; type: ADME, cell-free; conditions: read-out: Stability
[4] = Plasma stability in human assessed as compound remaining at 100 uM measured after 60 mins by LC-MS/MS analysis relative to control; type: ADME, cell-free; conditions: read-out: Stability
[5] = Plasma stability in human assessed as compound remaining at 100 uM measured after 120 mins by LC-MS/MS analysis relative to control; type: ADME, cell-free; conditions: read-out: Stability
[6] = Metabolic stability in human liver microsomes assessed as half-life at 100 uM measured upto 60 mins in the presence of NADPH by LC-MS/MS analysis; type: ADME, Microsome
[7] = Metabolic stability in human liver microsomes assessed as compound remaining at 100 uM measured after 60 mins by LC-MS/MS analysis; type: ADME, Microsome; conditions: read-out: Stability
[8] = target: CYP3A4 (Homo sapiens, UniProt P08684); assay: Inhibition of CYP3A4 in human liver microsomes at 10 uM preincubated for 10 mins followed by addition of NADPH-regenerating system and measured after 15 mins by LC-MS/MS analysis relative to control; type: ADME, Microsome; conditions: time 25 min
[9] = Half-life in Sprague-Dawley rat at 10 mg/kg, po by LC-MS/MS analysis; type: ADME, organism-based; conditions: in vivo
[10] = Tmax in Sprague-Dawley rat at 10 mg/kg, po by LC-MS/MS analysis; type: ADME, organism-based; conditions: in vivo
[11] = AUClast in Sprague-Dawley rat at 10 mg/kg, po by LC-MS/MS analysis; type: ADME, organism-based; design: time 0 - last, dose 10 mg/kg, route po; conditions: in vivo
[12] = Oral bioavailability in Sprague-Dawley rat at 10 mg/kg by LC-MS/MS analysis; type: ADME, organism-based; conditions: in vivo
[13] = Clearance in Sprague-Dawley rat at 3 mg/kg, iv by LC-MS/MS analysis; type: ADME, organism-based; conditions: in vivo
[14] = test system: MCF7; assay: Induction of apoptosis in human MCF7 cells assessed as early apoptotic cells at 2.5 uM incubated for 48 hrs by Annexin-V-FITC/PI staining based flow cytometric analysis (reference value: 2.83 %); type: functional
[15] = test system: MCF7; assay: Induction of apoptosis in human MCF7 cells assessed as late apoptotic cells at 2.5 uM incubated for 48 hrs by Annexin-V-FITC/PI staining based flow cytometric analysis (reference value: 0.019 %); type: functional
[16] = test system: MCF7; assay: Induction of apoptosis in human MCF7 cells assessed as viable cells at 1 uM incubated for 48 hrs by Annexin-V-FITC/PI staining based flow cytometric analysis (reference value: 97 %); type: functional
[17] = test system: MCF7; assay: Induction of apoptosis in human MCF7 cells assessed as viable cells at 0.50 uM incubated for 48 hrs by Annexin-V-FITC/PI staining based flow cytometric analysis (reference value: 97 %); type: functional; conditions: dose 0.5 µM
[18] = test system: MCF7; assay: Induction of apoptosis in human MCF7 cells assessed as late apoptotic cells at 0.50 uM incubated for 48 hrs by Annexin-V-FITC/PI staining based flow cytometric analysis (reference value: 0.019 %); type: functional; conditions: dose 0.5 µM
[19] = test system: MCF7; assay: Induction of apoptosis in human MCF7 cells assessed as necrotic cells at 0.50 uM incubated for 48 hrs by Annexin-V-FITC/PI staining based flow cytometric analysis (reference value: 0.18 %); type: functional; conditions: dose 0.5 µM
[20] = test system: MCF7; assay: Induction of apoptosis in human MCF7 cells assessed as early apoptotic cells at 0.25 uM incubated for 48 hrs by Annexin-V-FITC/PI staining based flow cytometric analysis (reference value: 2.83 %); type: functional
[21] = test system: MCF7; assay: Induction of apoptosis in human MCF7 cells assessed as late apoptotic cells at 0.25 uM incubated for 48 hrs by Annexin-V-FITC/PI staining based flow cytometric analysis (reference value: 0.019 %); type: functional
[22] = test system: MCF7; assay: Induction of apoptosis in human MCF7 cells assessed as necrotic cells at 0.25 uM incubated for 48 hrs by Annexin-V-FITC/PI staining based flow cytometric analysis (reference value: 0.18 %); type: functional
[23] = test system: MCF7; assay: Induction of apoptosis in human MCF7 cells assessed as total apoptotic cells at 0.10 uM incubated for 48 hrs by Annexin-V-FITC/PI staining based flow cytometric analysis relative to control; type: functional; conditions: dose 0.1 µM
[24] = test system: MCF7; assay: Induction of apoptosis in human MCF7 cells assessed as total apoptotic cells at 0.50 uM incubated for 48 hrs by Annexin-V-FITC/PI staining based flow cytometric analysis relative to control; type: functional; conditions: dose 0.5 µM
[25] = test system: MCF7; assay: Induction of cell cycle arrest in human MCF7 cells assessed as decrease in G1 phase cells at 2.5 uM measured after 48 hrs by flow cytometry analysis (reference value: 56.9 %); type: functional; design: scale not given: the % may be the effect or the level left
[26] = test system: MCF7; assay: Induction of cell cycle arrest in human MCF7 cells assessed as G2 phase cells at 2.5 uM measured after 48 hrs by flow cytometry analysis (reference value: 31.8 %); type: functional
[27] = test system: MCF7; assay: Induction of cell cycle arrest in human MCF7 cells assessed as G2 phase cells at 1 uM measured after 48 hrs by flow cytometry analysis (reference value: 31.8 %); type: functional
[28] = test system: MCF7; assay: Induction of cell cycle arrest in human MCF7 cells assessed as greater G1 phase cells at 1 uM measured after 48 hrs by flow cytometry analysis (reference value: 0.78 %); type: functional
[29] = test system: MCF7; assay: Induction of cell cycle arrest in human MCF7 cells assessed as S phase cells at 0.50 uM measured after 48 hrs by flow cytometry analysis (reference value: 9.31 %); type: functional; conditions: dose 0.5 µM
[30] = test system: MCF7; assay: Induction of cell cycle arrest in human MCF7 cells assessed as less G1 phase cells at 0.50 uM measured after 48 hrs by flow cytometry analysis (reference value: 0.44 %); type: functional; conditions: dose 0.5 µM
[31] = test system: MCF7; assay: Induction of cell cycle arrest in human MCF7 cells assessed as greater G1 phase cells at 0.50 uM measured after 48 hrs by flow cytometry analysis (reference value: 0.78 %); type: functional; conditions: dose 0.5 µM
[32] = test system: MCF7; assay: Induction of cell cycle arrest in human MCF7 cells assessed as decrease in G1 phase cells at 0.25 uM measured after 48 hrs by flow cytometry analysis (reference value: 56.9 %); type: functional; design: scale not given: the % may be the effect or the level left
[33] = test system: MCF7; assay: Induction of cell cycle arrest in human MCF7 cells assessed as G2 phase cells at 0.25 uM measured after 48 hrs by flow cytometry analysis (reference value: 31.8 %); type: functional
[34] = test system: MCF7; assay: Induction of cell cycle arrest in human MCF7 cells assessed as decrease in G1 phase cells at 0.10 uM measured after 48 hrs by flow cytometry analysis (reference value: 56.9 %); type: functional; design: scale not given: the % may be the effect or the level left; conditions: dose 0.1 µM
[35] = test system: MCF7; assay: Induction of cell cycle arrest in human MCF7 cells assessed as less G1 phase cells at 0.10 uM measured after 48 hrs by flow cytometry analysis (reference value: 0.44 %); type: functional; conditions: dose 0.1 µM
[36] = test system: MCF7; assay: Induction of cell cycle arrest in human MCF7 cells assessed as greater G1 phase cells at 0.10 uM measured after 48 hrs by flow cytometry analysis (reference value: 0.78 %); type: functional; conditions: dose 0.1 µM

Sequence of CYP3A4 (P08684 whole entry): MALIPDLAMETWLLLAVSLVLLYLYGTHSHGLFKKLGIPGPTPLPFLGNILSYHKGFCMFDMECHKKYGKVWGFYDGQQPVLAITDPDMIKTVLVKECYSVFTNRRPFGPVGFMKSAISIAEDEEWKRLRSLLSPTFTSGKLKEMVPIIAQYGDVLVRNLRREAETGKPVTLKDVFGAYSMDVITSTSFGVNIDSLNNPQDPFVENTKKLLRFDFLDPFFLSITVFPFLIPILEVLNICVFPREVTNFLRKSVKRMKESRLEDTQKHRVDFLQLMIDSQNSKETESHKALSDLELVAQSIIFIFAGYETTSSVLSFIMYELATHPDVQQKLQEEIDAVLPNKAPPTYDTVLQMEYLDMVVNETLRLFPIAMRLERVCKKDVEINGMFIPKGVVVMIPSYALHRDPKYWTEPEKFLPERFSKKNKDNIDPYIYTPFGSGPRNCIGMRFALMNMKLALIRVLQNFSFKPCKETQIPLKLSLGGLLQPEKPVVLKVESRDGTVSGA

- IC50 [1]: 0.36 µM
- IC50 [2]: 2.88 µM
- remaining at 0.5 h, 100 µM [3]: 96.6%
- remaining at 1 h, 100 µM [4]: 99.2%
- remaining at 2 h, 100 µM [5]: 107%
- half-life at 100 µM [6]: 0.493 h
- remaining at 1 h, 100 µM [7]: 106%
- inhibition at 0.25 h, 10 µM [8]: 0%
- half-life [9]: 1.75 h
- Tmax [10]: 1.33 h
- AUC(0-t) [11]: 286 ng·h/mL
- bioavailability [12]: 8.03%
- clearance [13]: 47.2 mL/min/kg
Compound: Cc1cc(Nc2nc(NCc3ccc(F)cc3F)nc3c2cnn3C2CCOCC2)n[nH]1
- Activity [14]: 68.5%
- Activity [15]: 10.8%
- Activity [16]: 27.5%
- Activity [17]: 32.2%
- Activity [18]: 7.58%
- Activity [19]: 0.56%
- Activity [20]: 24.8%
- Activity [21]: 6.18%
- Activity [22]: 1.97%
- Activity [23]: 24.04%
- Activity [24]: 67.28%
- Activity [25]: 9.8%
- Activity [26]: 67.6%
- Activity [27]: 58.3%
- Activity [28]: 0.61%
- Activity [29]: 16.9%
- Activity [30]: 0.71%
- Activity [31]: 1.34%
- Activity [32]: 43.6%
- Activity [33]: 44.4%
- Activity [34]: 53.4%
- Activity [35]: 0.37%
- Activity [36]: 0.62%
